Values joined by “and” are separate entries in the source; they are usually repeats but may differ in a detail not shown here. Equal values may be shown once. “Also recorded” adds a separate entry of the source.
Assays:
[1] = target: T1, RecQ helicase (Escherichia coli, UniProt P15043); experiment: Cell-free fluorescence molecular beacon helicase assay; format: biochemical, E. coli; set-up: Average rate of reaction / Rate (Triplicate): unit: RFU/min; settings: for Fluorescence at 35 minutes, Run 2 / Fluorescence at time 0, Run 2: duplicate, listed as H; for Average rate of reaction: mean of triplicate; for Rate (Triplicate): rate of reaction=(F0-F35)/35; for Change in helicase activity compared to the DMSO control: any of the tested concentrations (0.06-200 μg/mL)
T1 construct: a full-length E. coli helicase, RecQ, was used

[2] = system: human PBMC; experiment: LPS stimulated cytokine secretion in human PBMC pretreated with compounds (Phase 2); format: cell-based; set-up: TNF-α concentration in supernatant / IL-1β concentration in supernatant / IL-6 concentration in supernatant / IL-2 concentration in supernatant / IFN-g concentration in supernatant: unit of the concentration uncertain; settings: for IL-1β Mean Fold-Change (Relative to LPS alone) / IL-6 Mean Fold-Change (Relative to LPS alone) / TNF-α Mean Fold-Change (Relative to LPS alone): 1 ng/mL LPS stimulation for 8 hours, means from 3 donors; for IL-2 concentration in supernatant / TNF-α concentration in supernatant / IL-1β concentration in supernatant / IFN-g concentration in supernatant / IL-6 concentration in supernatant: 8-hour 1 ng/mL LPS stimulation; for IL-2 concentration in supernatant: LLOQ = 1.698 pg/mL; for TNF-α concentration in supernatant: LLOQ = 2.018 pg/mL; for IL-1β concentration in supernatant: LLOQ = 2.299 pg/mL; for IFN-g concentration in supernatant: LLOQ = 2.792 pg/mL; for IL-6 concentration in supernatant: LLOQ = 0.831
[3] = system: human PBMC; experiment: Test compound induced cytokine secretion in human PBMC without LPS, 10 or 26 hours (Phase 1); settings: 100 μM, 26 hours, no LPS
Method: Secretion of the cytokines TNF-α (A), IL-1β (B) and IL-6 (C) were measured in supernatant of PBMC cultured in the presence of test compounds using a Luminex platform with the Milliplex MAP Human High Sensitivity T Cell Panel Immunology Multiplex Assay. Results are represented as a mean from 3 separate donors in pg/mL.
Whole blood was collected from 3 human donors and peripheral blood mononuclear cells (PBMC) were isolated using the Ficoll-Paque density gradient method. PBMC were then plated and left untouched for 2 hours to account for a 2 hours pretreatement period (see below for details), and incubated for 8 or 24 hours in a humidified incubator set to maintain 37° C. with 5% CO2, with different concentrations of LPS as per Table 11 in order to determine the optimal stimulation conditions to detect cytokine release. […] RPMI medium alone or supplemented with 0.1% DMSO (to mimic treatment conditions) were used as negative controls.
At the end of the incubation period, supernatant samples were recovered and stored at −80° C. until analysis (in duplicate) using a Luminex platform with the Milliplex MAP Human High Sensitivity T Cell Panel Immunology Multiplex Assay (Cat. No. HSTCMAG-28SK) with the following selected cytokines of interest: IL-1, IL-2, IL-6, IFN-g and TNF-α. Each assay was defined by one calibration curve and 2 sets of QCs and the results were expressed as pg/mL.

[4] = TA 0.06 μg/mL (plate column 4, wells A-C)
[5] = TA 0.2 μg/mL (plate column 5, wells A-C)
[6] = TA 0.6 μg/mL (plate column 6, wells A-C)
[7] = TA 2 μg/mL (plate column 7, wells A-C)
[8] = TA 6 μg/mL (plate column 8, wells A-C)
[9] = TA 60 μg/mL (plate column 10, wells A-C)
[10] = TA 200 + Buffer (plate column 12, wells A-C)

T1 sequence (P15043 whole entry): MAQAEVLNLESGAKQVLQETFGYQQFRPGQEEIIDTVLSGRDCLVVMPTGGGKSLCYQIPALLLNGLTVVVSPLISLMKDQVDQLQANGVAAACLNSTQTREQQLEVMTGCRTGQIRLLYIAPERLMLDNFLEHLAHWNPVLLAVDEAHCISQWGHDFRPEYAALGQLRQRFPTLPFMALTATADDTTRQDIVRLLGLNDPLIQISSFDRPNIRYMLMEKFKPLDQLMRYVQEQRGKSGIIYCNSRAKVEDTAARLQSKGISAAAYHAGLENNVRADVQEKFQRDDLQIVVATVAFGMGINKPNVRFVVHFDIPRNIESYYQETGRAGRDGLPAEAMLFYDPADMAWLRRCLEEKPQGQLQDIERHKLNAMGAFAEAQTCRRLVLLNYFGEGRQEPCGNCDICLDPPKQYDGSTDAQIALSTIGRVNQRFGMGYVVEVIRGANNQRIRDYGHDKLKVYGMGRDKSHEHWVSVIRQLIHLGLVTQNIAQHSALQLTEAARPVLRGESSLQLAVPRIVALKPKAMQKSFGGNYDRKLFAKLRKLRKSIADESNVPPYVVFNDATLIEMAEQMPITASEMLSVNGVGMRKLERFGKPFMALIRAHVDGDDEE

COc1ccc([C@@H]2CC(=O)c3c(O)cc(O[C@@H]4O[C@H](CO[C@@H]5O[C@@H](C)[C@H](O)[C@@H](O)[C@H]5O)[C@@H](O)[C@H](O)[C@H]4O)cc3O2)cc1O [Hesperidin]
Fluorescence at 35 minutes, Run 2 ([1]; 0.06 μg/mL): 2987 RFU and 3023 RFU
Fluorescence at time 0, Run 2 ([1]; 0.06 μg/mL): 5870 RFU and 7788 RFU
Average rate of reaction ([1]; 0.06 μg/mL): 61.47
Average rate of reaction ([1]; 0.2 μg/mL): 53.5
Rate (Triplicate) ([1]; 0.2 μg/mL): 47.51 and 71.4 and 41.6
Fluorescence at 35 minutes, Run 2 ([1]; 0.6 μg/mL): 2677 RFU and 2621 RFU
Fluorescence at time 0, Run 2 ([1]; 0.6 μg/mL): 9523 RFU and 7721 RFU
Average rate of reaction ([1]; 0.6 μg/mL): 107.9714
Fluorescence at 35 minutes, Run 2 ([1]; 2 μg/mL): 2624 RFU and 2801 RFU
Average rate of reaction ([1]; 2.0 μg/mL): 110.1429
Rate (Triplicate) ([1]; 2.0 μg/mL): 108.1714 and 140.8 and 81.46
Fluorescence at 35 minutes, Run 2 ([1]; 6 μg/mL): 2526 RFU and 2818 RFU
Fluorescence at time 0, Run 2 ([1]; 6 μg/mL): 8127 RFU and 9570 RFU
Average rate of reaction ([1]; 6.0 μg/mL): 169.7048
Fluorescence at 35 minutes, Run 2 ([1]; 20 μg/mL): 3653 RFU and 3927 RFU
Fluorescence at time 0, Run 2 ([1]; 20 μg/mL): 4464 RFU and 8870 RFU
Average rate of reaction ([1]; 20.0 μg/mL): 55.09
Fluorescence at 35 minutes, Run 2 ([1]; 60 μg/mL): 4250 RFU and 4180 RFU
Fluorescence at time 0, Run 2 ([1]; 60 μg/mL): 4134 RFU and 3133 RFU
Average rate of reaction ([1]; 60.0 μg/mL): 58.1
Fluorescence at 35 minutes, Run 2 ([1]; 200 μg/mL): 3913 RFU and 4063 RFU
Average rate of reaction ([1]; 200.0 μg/mL): 90.4381
Fluorescence at 0:00:00, Run 1 [1, 4]: 5759 RFU and 9125 RFU and 10456 RFU
Fluorescence at 0:35:00, Run 1 [1, 4]: 5467 RFU and 6877 RFU and 6542 RFU
Fluorescence at 0:00:00, Run 1 [1, 5]: 7735 RFU and 8642 RFU and 7853 RFU
Fluorescence at 0:35:00, Run 1 [1, 5]: 6072 RFU and 6143 RFU and 6397 RFU
Fluorescence at 0:00:00, Run 1 [1, 6]: 7559 RFU and 14137 RFU and 7347 RFU
Fluorescence at 0:35:00, Run 1 [1, 6]: 5304 RFU and 6502 RFU and 5900 RFU
Fluorescence at 0:00:00, Run 1 [1, 7]: 10359 RFU and 11454 RFU and 8360 RFU
Fluorescence at 0:35:00, Run 1 [1, 7]: 6573 RFU and 6526 RFU and 5509 RFU
Fluorescence at 0:00:00, Run 1 [1, 8]: 10222 RFU and 10590 RFU and 17264 RFU
Fluorescence at 0:35:00, Run 1 [1, 8]: 6164 RFU and 5213 RFU and 8880 RFU
Fluorescence at 0:00:00, Run 1 [1, 9]: 10452 RFU and 7252 RFU and 7210 RFU
Fluorescence at 0:35:00, Run 1 [1, 9]: 7008 RFU and 6217 RFU and 5588 RFU
Fluorescence at 0:35:00, Run 1 ([1]; TA 200 μg/mL (plate column 11, wells A-C)): 7231 RFU and 6648 RFU and 7799 RFU
Fluorescence at 0:00:00, Run 1 [1, 10]: 10477 RFU and 15660 RFU and 9770 RFU
Fluorescence at 0:35:00, Run 1 [1, 10]: 9155 RFU and 9497 RFU and 7774 RFU
Change in helicase activity compared to the DMSO control [1]: no observed clear change
Change in helicase activity compared to the DMSO control ([1]; listed as hesperidin): no effect
IL-1β Mean Fold-Change (Relative to LPS alone) ([2]; 10 mM (so in the source)): 1.14
IL-6 Mean Fold-Change (Relative to LPS alone) ([2]; 10 mM (so in the source)): 1.10
TNF-α Mean Fold-Change (Relative to LPS alone) ([2]; 10 mM (so in the source)): 0.98
IL-1β Mean Fold-Change (Relative to LPS alone) ([2]; 100 mM (so in the source)): 1.30
IL-6 Mean Fold-Change (Relative to LPS alone) ([2]; 100 mM (so in the source)): 1.24
TNF-α Mean Fold-Change (Relative to LPS alone) ([2]; 100 mM (so in the source)): 1.20
Effect on LPS stimulated secretion of IL-1b ([2]; 200 mM (so in the source), 2 h pretreatment, 1 ng/mL LPS 8 hours): increase; also recorded: appeared to enhance; also recorded: potentiate
IL-1β Mean Fold-Change (Relative to LPS alone) ([2]; 200 mM (so in the source)): 1.54
IL-6 Mean Fold-Change (Relative to LPS alone) ([2]; 200 mM (so in the source)): 1.25
TNF-α Mean Fold-Change (Relative to LPS alone) ([2]; 200 mM (so in the source)): 1.14
IL-2 concentration in supernatant ([2]; Donor 1, 10 (unit uncertain)): <LLOQ
TNF-α concentration in supernatant ([2]; Donor 1, 10 (unit uncertain)): 1889.91 pg/mL
IL-1β concentration in supernatant ([2]; Donor 1, 10 (unit uncertain)): 3059.18 pg/mL
IFN-g concentration in supernatant ([2]; Donor 1, 10 (unit uncertain)): <LLOQ
IL-6 concentration in supernatant ([2]; Donor 1, 10 (unit uncertain)): 1099.07 pg/mL
IL-2 concentration in supernatant ([2]; Donor 1, 100 (unit uncertain)): <LLOQ
TNF-α concentration in supernatant ([2]; Donor 1, 100 (unit uncertain)): 2577.7 pg/mL
IL-1β concentration in supernatant ([2]; Donor 1, 100 (unit uncertain)): 3955.41 pg/mL
IFN-g concentration in supernatant ([2]; Donor 1, 100 (unit uncertain)): <LLOQ
IL-6 concentration in supernatant ([2]; Donor 1, 100 (unit uncertain)): 1441.95 pg/mL
IL-2 concentration in supernatant ([2]; Donor 1, 200 (unit uncertain)): <LLOQ
TNF-α concentration in supernatant ([2]; Donor 1, 200 (unit uncertain)): 2290.76 pg/mL
IL-1β concentration in supernatant ([2]; Donor 1, 200 (unit uncertain)): 4853.62 pg/mL
IFN-g concentration in supernatant ([2]; Donor 1, 200 (unit uncertain)): <LLOQ
IL-6 concentration in supernatant ([2]; Donor 1, 200 (unit uncertain)): 1485.45 pg/mL
IL-2 concentration in supernatant ([2]; Donor 2, 10 (unit uncertain)): <LLOQ
TNF-α concentration in supernatant ([2]; Donor 2, 10 (unit uncertain)): 1091.56 pg/mL
IL-1β concentration in supernatant ([2]; Donor 2, 10 (unit uncertain)): 2855.56 pg/mL
IFN-g concentration in supernatant ([2]; Donor 2, 10 (unit uncertain)): <LLOQ
IL-2 concentration in supernatant ([2]; Donor 2, 100 (unit uncertain)): <LLOQ
TNF-α concentration in supernatant ([2]; Donor 2, 100 (unit uncertain)): 1254.84 pg/mL
IL-1β concentration in supernatant ([2]; Donor 2, 100 (unit uncertain)): 2344.12 pg/mL
IFN-g concentration in supernatant ([2]; Donor 2, 100 (unit uncertain)): <LLOQ
IL-2 concentration in supernatant ([2]; Donor 2, 200 (unit uncertain)): <LLOQ
TNF-α concentration in supernatant ([2]; Donor 2, 200 (unit uncertain)): 1621.58 pg/mL
IL-1β concentration in supernatant ([2]; Donor 2, 200 (unit uncertain)): 3244.42 pg/mL
IFN-g concentration in supernatant ([2]; Donor 2, 200 (unit uncertain)): <LLOQ
IL-2 concentration in supernatant ([2]; Donor 3, 10 (unit uncertain)): <LLOQ
TNF-α concentration in supernatant ([2]; Donor 3, 10 (unit uncertain)): 3632.86 pg/mL
IL-1β concentration in supernatant ([2]; Donor 3, 10 (unit uncertain)): 3800.6 pg/mL
IFN-g concentration in supernatant ([2]; Donor 3, 10 (unit uncertain)): <LLOQ
IL-2 concentration in supernatant ([2]; Donor 3, 100 (unit uncertain)): <LLOQ
TNF-α concentration in supernatant ([2]; Donor 3, 100 (unit uncertain)): 3808.52 pg/mL
IL-1β concentration in supernatant ([2]; Donor 3, 100 (unit uncertain)): 4941.84 pg/mL
IFN-g concentration in supernatant ([2]; Donor 3, 100 (unit uncertain)): <LLOQ
IL-2 concentration in supernatant ([2]; Donor 3, 200 (unit uncertain)): <LLOQ
TNF-α concentration in supernatant ([2]; Donor 3, 200 (unit uncertain)): 2731.72 pg/mL
IL-1β concentration in supernatant ([2]; Donor 3, 200 (unit uncertain)): 4883.06 pg/mL
IFN-g concentration in supernatant ([2]; Donor 3, 200 (unit uncertain)): <LLOQ
Secretion of IL-1β and IL-6, compound alone [3]: in one donor, secretion of IL-1β, and IL-6 was also observed

From patent publication US12569509B2, “Method and composition for preventing and treating viral infections” (priority 2017, dated 2026)
